Results reported in patent US12312628B2, “Metabolic control over organometallic catalysts using electroactive bacteria” (THE BOARD OF REGENTS OF THE UNIVERSITY OF TEXAS SYSTEM, priority 2018, dated 2025).

How the values were obtained:
S. oneidensis MR-1 = experiment: Bacterial viability after polymerization (LIVE/DEAD BacLight, CFU counting); format: cell-based, Shewanella oneidensis
Description: Bacterial viability was determined by CFU counting and staining with the LIVE/DEAD BacLight Viability Kit (Invitrogen). For CFU counting, serial dilutions from the Cu-TPMA polymerization reaction and a control culture containing 20 mM sodium lactate and 40 mM sodium fumarate were plated onto LB agar containing 20 mM sodium lactate and 40 mM sodium fumarate, and incubated anaerobically for 18 hours. The LIVE/DEAD BacLight Viability Kit was used according to manufacturer instructions. Briefly, cells were harvested after polymerization and washed 3× with 0.85% saline by centrifugation at 6000×g for 20 min. Cells were concentrated to an OD600 of ˜2.0 and incubated with the LIVE/DEAD BacLight Bacterial Viability dye mixture in the dark for 15 minutes. Excess, unbound dye was removed by repeated centrifugation and washing with 0.85% saline (total of 5 washes). 20 μL of cells were placed on glass slides, allowed to settle, and covered with a 0.17 mm coverslip. Excess moisture was wicked from the slide edges and the coverslips were sealed with nail polish. A Zeiss Axiovert 200M Fluorescent Microscope was used to image live and dead cells at room temperature. Images were captured using 475/40 nm excitation and 530/50 nm emission for green (live) fluorescence and 560/40 nm excitation and 630/75 nm emission for red (dead) fluorescence with a 40× oil objective. Cell counts to determine the viable population percentages were quantified by thresholding using Fiji 1.0 software from at least 3 different fields of view. Representative images were background subtracted using a rolling ball radius of 10 pixels in Fiji 1.0.

E. coli = details: polymerization conditions, Cu(II/I) 2 μM
[1] = test system: S. oneidensis genomic knockout strain (ΔmtrCΔomcAΔmtrF) with BUFFER GATE/sfGFP plasmid; experiment: BUFFER GATE/sfGFP reporter response to inducer; format: cell-based, Shewanella oneidensis; details: various concentrations of IPTG
From the text: An S. oneidensis strain/plasmid system was developed that tunes extracellular electron transfer via BUFFER GATE-controlled expression of mtrC. The BUFFER GATE sets gene expression as ‘off’ in the absence of a user-defined signal (e.g., small-molecule, light, heat). However, in the signal's presence, the BUFFER GATE turns gene expression ‘on’. A BUFFER GATE was constructed by encoding the LacI repressor and Ptac promoter pairing on a plasmid, which together can modulate transcription of promoter-downstream genes based on culture concentration of the small-molecule Isopropyl β-D-1-thiogalactopyranoside or IPTG. To test the functionality and dynamic range of gene expression actuated by this BUFFER GATE, a plasmid was constructed that placed a ribozyme-insulated fluorescent reporter gene, superfolder GFP or sfGFP, downstream of the Ptac promoter. This BUFFER GATE/sfGFP plasmid was used to transform an S. oneidensis genomic knockout strain (ΔmtrCΔomcAΔmtrF) and sfGFP fluorescence was measured at various concentrations of IPTG. Using this S. oneidensis strain, 488/530 nm fluorescence varied over about 2 orders of magnitude (FIG. 11).

**Q.** How did the “inhibition of MR-1 growth” value (S. oneidensis MR-1; after 24 hours of polymerization, CuSO4·5H2O and EDTA) turn out when `[Cu+]` [Cu(I)] was run?
**A.** minimal inhibition

**Q.** Which results are given for `O.O.O.O.O.O=S(=O)([O-])[O-].[Cu+2]` [Cu(II), Cupric sulfate pentahydrate]?
**A.** post-polymerization viability (S. oneidensis MR-1; MR-1, polymerization conditions, Cu(II/I) 2 μM): 74%; MR-1 colony forming units (CFUs) following polymerization (S. oneidensis MR-1; optimized polymerization conditions, Cu(II/I) 2 μM and below): No significant difference; post-polymerization viability (E. coli): 86%

**Q.** How did the “sfGFP 488/530 nm fluorescence variation” value [1] turn out when `CC(C)S[C@@H]1O[C@H](CO)[C@H](O)[C@H](O)[C@H]1O` [IPTG, Isopropyl β-D-1-thiogalactopyranoside] was run?
**A.** about 2 orders of magnitude
